Data from patent US20240115557A1, “INHIBITORS OF RNA-GUIDED NUCLEASES AND USES THEREOF” (The Brigham and Women's Hospital, Inc., priority 2022, published 2024).
Numbered stars: 1 amine (or outer) side, 2 acyl side, 3 side chain; on linkers, the order of the positions; unused ones are H or OH. Bridge positions count the residues as written; N and C are the ends. Square brackets hold non-standard residues; d marks the D form. Peptide text beside a SMILES is read from it. I, II: the chains in the order shown. Actinocin(9to1) = Cc1c2oc3c(C)ccc(C(=O)[*:1])c3nc-2c(C(=O)[*:2])c(N)c1=O; NMeV = CN[C@H](C(=O)O)C(C)C; Sar = CNCC(=O)O

Biological target: SpCas9 (Streptococcus pyogenes serotype M1, UniProt Q99ZW2)
Experiment: eGFP disruption assay, SpCas9, U2OS.eGFP.PEST cells
Assay type: cell-based
Details: for Normalized Z rep1 / Z score Rep1: replicate 1; for SpCas9 eGFP disruption Rep1: replicate 1, raw readout; for Normalized Z rep2 / Z socre Rep2: replicate 2; for SpCas9 eGFP disruption Rep2: replicate 2, raw readout
From the text: In some embodiments, the secondary assay may be an EGFP disruption assay. In such assay, a quantitative human cell-based reporter assay that enables rapid quantitation of targeted nuclease activities is used to characterize off-target cleavage of Cas9-based RNA guided endonucleases. In this assay, the activities of nucleases targeted to a single integrated EGFP reporter gene can be quantified by assessing loss of fluorescence signal in human U2OS.EGFP cells caused by inactivating frameshift insertion/deletion (indel) mutations introduced by error prone non-homologous end-joining (NHEJ) repair of nuclease-induced double-stranded breaks (DSBs).
In one protocol, U2OS.EGFP cells harboring a single integrated copy of an EGFP-PEST fusion gene are cultured (see e.g., Reyon et al., Nat Biotech 30, 460-465 (2012), which is herein incorporated by reference in its entirety). For transfections, 200,000 cells are Nucleofected with gRNA expression plasmid and pJDS246 together with 30 ng of a Td-tomato-encoding plasmid using the SE Cell Line 4D-Nucleofector™ X Kit (Lonza) according to the manufacturer's protocol. Cells are analyzed 2 days post-transfection using a BD LSRII flow cytometer. Transfections for optimizing gRNA/Cas9 plasmid concentration are performed in triplicate and all other transfections are performed in duplicate. PCR amplification is used for sequence verification of endogenous human genomic sites. PCR reactions are performed using Phusion Hot Start II high-fidelity DNA polymerase (NEB). Loci are amplified using touchdown PCR (98° C., 10 s; 72-62° C., −1° C./cycle, 15s; 72° C., 30 s] 10 cycles, [98° C., 10s; 62° C., 15s; 72° C., 30 s] 25 cycles). Alternatively, PCR for other targets is performed with 35 cycles at a constant annealing temperature of 68° C. or 72° C., and 3% DMSO or IM betaine, if necessary. PCR products are analyzed on a QIAXCEL capillary electrophoresis system to verify both size and purity. Validated products are treated with ExoSap-IT (Affymetrix) and sequenced by the Sanger method (MGH DNA Sequencing Core) to verify each target site.
Primary and secondary screening. The primary screen assayed a selection of unique chemical scaffolds derived from commercially available compounds and known bioactive molecular libraries (Table 7). Auto-fluorescent compounds were removed by a counter screen. Overall, the CAA was used to assay 122,409 small molecules with over 2,500 unique chemical scaffolds (FIG. 64F, Table 7). Of these compounds, 547 were selected as hits (Z score >3 in both replicates) for testing in orthogonal cell-based secondary assays. Hits were tested in duplicate in an eGFP disruption assay, wherein U2OS.eGFP.PEST cells^33 transfected with SpCas9 plasmid and eGFP-targeting gRNA plasmid were incubated with 20 μM of the compounds. In this assay, any compound that inhibited SpCas9 would rescue the loss of eGFP fluorescence. Here, toxic and auto-fluorescent compounds with a high GFP signal in cells were removed as false positives. […] Next, Applicants tested the 15 compounds in a luminescence-based gain-of-signal HiBiT knock-in assay, which involves SpCas9-mediated homology-directed tagging of GAPDH with a short peptide that luminesces upon complementation with a subunit derived from nanoluciferase.^34 Complementarily, the eGFP-disruption assay is fluorescence-based and involves error-prone DNA repair. As a counter-screen to remove false positives caused by cell death (viability <80%), the cell viability was measured after incubation.
For SAR studies and dose-response studies, 300,000 U2OS.eGFP.PEST cells were nucleofected with 300 ng of SpCas9 plasmid (Addgene #43861) and 30 ng of eGFP-targeting gRNA plasmid (Addgene #47511)^33 using SE Cell Line 4D-Nucleofector X Kit (Lonza) following the pulse program of DN-100. For RNP-based genome editing, 10 pmol of SpCas9 (GenScript #Z03385) and 12 pmol of gRNA were mixed and incubated for 5 min. […]

[1] = Cas9 = lower control, Ctrl = upper control
[2] = normalized, lower control about 0, upper control about 1

Chain of SpCas9 (Q99ZW2 whole entry): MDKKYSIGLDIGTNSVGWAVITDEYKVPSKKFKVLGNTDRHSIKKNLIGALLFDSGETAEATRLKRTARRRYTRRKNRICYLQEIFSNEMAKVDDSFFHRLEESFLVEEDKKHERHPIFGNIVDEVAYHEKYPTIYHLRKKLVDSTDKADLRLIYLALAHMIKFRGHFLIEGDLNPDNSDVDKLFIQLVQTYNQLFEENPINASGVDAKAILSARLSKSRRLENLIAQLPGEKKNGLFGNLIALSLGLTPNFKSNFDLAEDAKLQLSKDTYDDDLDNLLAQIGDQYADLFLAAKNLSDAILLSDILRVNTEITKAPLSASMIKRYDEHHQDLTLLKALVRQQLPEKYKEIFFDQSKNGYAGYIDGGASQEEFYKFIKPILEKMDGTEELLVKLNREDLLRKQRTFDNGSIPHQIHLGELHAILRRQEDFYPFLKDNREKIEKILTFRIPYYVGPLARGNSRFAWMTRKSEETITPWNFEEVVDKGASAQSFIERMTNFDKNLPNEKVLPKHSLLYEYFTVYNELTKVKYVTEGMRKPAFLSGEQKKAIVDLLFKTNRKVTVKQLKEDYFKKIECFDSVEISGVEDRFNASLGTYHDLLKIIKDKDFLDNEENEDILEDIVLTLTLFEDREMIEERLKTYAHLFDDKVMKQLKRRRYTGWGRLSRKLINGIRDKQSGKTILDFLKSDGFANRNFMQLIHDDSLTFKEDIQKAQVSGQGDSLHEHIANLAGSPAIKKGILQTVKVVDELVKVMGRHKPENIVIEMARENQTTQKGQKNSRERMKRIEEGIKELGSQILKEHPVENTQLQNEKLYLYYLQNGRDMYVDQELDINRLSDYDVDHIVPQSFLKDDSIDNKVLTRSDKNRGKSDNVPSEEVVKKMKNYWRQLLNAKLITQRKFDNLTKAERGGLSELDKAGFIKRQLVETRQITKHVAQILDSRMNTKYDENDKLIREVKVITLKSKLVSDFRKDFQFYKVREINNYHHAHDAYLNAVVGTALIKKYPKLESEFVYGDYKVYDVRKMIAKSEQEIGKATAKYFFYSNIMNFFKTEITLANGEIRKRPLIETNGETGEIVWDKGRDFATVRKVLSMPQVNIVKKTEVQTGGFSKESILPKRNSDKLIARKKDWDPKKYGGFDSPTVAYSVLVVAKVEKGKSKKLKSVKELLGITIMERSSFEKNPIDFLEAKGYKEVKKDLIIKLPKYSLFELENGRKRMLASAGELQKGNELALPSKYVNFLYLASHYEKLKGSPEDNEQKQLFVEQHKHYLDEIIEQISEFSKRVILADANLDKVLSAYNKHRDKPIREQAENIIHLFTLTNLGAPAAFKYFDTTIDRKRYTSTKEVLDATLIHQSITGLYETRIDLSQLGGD

Row | Structure (SMILES) | Normalized Z rep1 | Z score Rep1 | SpCas9 eGFP disruption Rep1 | Normalized Z rep2 | Z socre Rep2 | SpCas9 eGFP disruption Rep2 | SpCas9 eGFP disruption Rep1 [1] | Normalized Z rep1 [2] | SpCas9 eGFP disruption Rep2 [1] | Normalized Z rep2 [2]
1 | Cc1cccc(C(=O)Nc2ccccc2Sc2cc(C)nc3ncnn23)c1 [Compound F518-0014] | −0.36 | −3.28 | 55.407 | −0.34 | −5.07 | 57.92 | – | – | – | –
2 | N#Cc1[nH]c(=O)n(Cc2ccccc2)c1N [Cpd10] | 0.00 | 0.06 | 58.004 | 0.14 | 2.94 | 60.748 | – | – | – | –
3 | Cc1nn(-c2ccccc2)c(C)c1CCc1nnc2sc(-c3ccccc3F)nn12 [Compound D727-0713] | – | 0.38 | – | – | 1.08 | – | 68.26 | 0.05 | 66.347 | 0.12
4 | COc1ccc(CCc2nnc3sc(-c4ccncc4)nn23)cc1OC [Compound D727-0712] | −0.16 | −1.13 | 63.284 | −0.29 | −2.66 | 55.062 | – | – | – | –
5 | Cc1c2oc3c(C)ccc(C(=O)N[C@@H]4C(=O)N[C@H](C(C)C)C(=O)N5CCC[C@H]5C(=O)N(C)CC(=O)N(C)[C@@H](C(C)C)C(=O)O[C@@H]4C)c3nc-2c(C(=O)N[C@@H]2C(=O)N[C@H](C(C)C)C(=O)N3CCC[C@H]3C(=O)N(C)CC(=O)N(C)[C@@H](C(C)C)C(=O)O[C@@H]2C)c(N)c1=O [SAM001246846] (I: T[dV]P[Sar][NMeV] / II: T[dV]P[Sar][NMeV]; ester I:1-I:C, II:1-II:C; linker I:N-II:N via Actinocin(9to1)) | −2.59 | −16.90 | 26.655 | −2.71 | −26.02 | 24.765 | – | – | – | –
6 | Fc1ccc(-c2nn3c(-c4cnccn4)nnc3s2)cc1Br [Compound D727-0884] | −0.16 | −1.16 | 63.178 | −0.23 | −2.10 | 56.742 | – | – | – | –
7 | Clc1ccccc1OCc1nn2c(-c3ccccn3)nnc2s1 [Compound D727-0524] | −0.39 | −2.83 | 57.663 | −0.16 | −1.47 | 58.659 | – | – | – | –
8 | Fc1cccc(-c2nnc3sc(-c4ccc5ccccc5n4)nn23)c1 [Compound D727-0892] | −0.28 | −2.03 | 60.296 | −0.34 | −3.13 | 53.657 | – | – | – | –
9 | CCCCNC(=O)CN1CCN(c2ccc(C(=O)O)cc2NC(=O)c2ccccc2Cl)CC1 [Compound F086-0029] | −0.30 | −2.20 | 59.751 | −0.05 | −0.46 | 61.703 | – | – | – | –
10 | CN(C)c1cccc(-c2nn3c(-c4ccc5ccccc5c4)nnc3s2)c1 [Compound D727-0754] | −0.15 | −1.06 | 63.517 | −0.59 | −5.54 | 46.376 | – | – | – | –
11 | Cc1cc(Sc2ccccc2NC(=O)c2cccc(F)c2)n2ncnc2n1 [Compound F518-0008] | −0.22 | −2.00 | 59.029 | −0.20 | −3.02 | 61.293 | – | – | – | –
12 | Cc1nn(-c2ccccc2)c(C)c1CCc1nn2c(-c3cnccn3)nnc2s1 [Compound D727-0838] | −0.12 | −0.86 | 64.17 | −0.21 | −1.92 | 57.281 | – | – | – | –
13 | CC(C)(C)OC(=O)NCCOc1ccc(S(=O)(=O)CCC(=O)Nc2nc(-c3ccncc3)cs2)cc1 [Cpd6] | −0.10 | −1.44 | 54.15 | 0.06 | 1.16 | 57.456 | – | – | – | –
14 | c1cncc(-c2nnc3sc(Cc4ccc5c(c4)OCCO5)nn23)c1 [Compound D727-0088] | −0.24 | −1.77 | 61.161 | −0.08 | −0.75 | 60.83 | – | – | – | –
15 | Fc1cccc(-c2nn3c(-c4ccc5ccccc5n4)nnc3s2)c1 [D727-0740] | −0.57 | −4.14 | 53.347 | −0.08 | −0.74 | 60.86 | – | – | – | –
16 | COc1ccc(S(=O)(=O)CCC(=O)Nc2nc(-c3ccncc3)cs2)cc1 [Cpd4] | −0.26 | −3.70 | 48.322 | −0.20 | −4.05 | 47.796 | – | – | – | –
17 | Cc1nc2ccccc2n1Cc1nnc2sc(-c3cccnc3)nn12 [Compound D727-0182] | −0.45 | −3.22 | 56.36 | 0.14 | 1.30 | 67.01 | – | – | – | –
18 | COc1ccc(-c2nnc3sc(-c4cccnc4)nn23)cc1OC [Compound D727-0025] | −0.28 | −2.04 | 60.269 | −0.11 | −1.05 | 59.908 | – | – | – | –
19 | COc1ccc(Cc2nnc3sc(-c4ccccc4OC)nn23)cc1 [Compound D727-0159] | −0.57 | −4.09 | 53.496 | −0.23 | −2.11 | 56.714 | – | – | – | –
20 | Cc1nn(-c2ccccc2)c(C)c1CCc1nn2c(-c3ccncc3)nnc2s1 [Compound D727-0837] | −0.15 | −1.06 | 63.496 | −0.11 | −1.05 | 59.923 | – | – | – | –
21 | Fc1ccc(-c2nn3c(-c4ccncc4)nnc3s2)cc1Br [Compound D727-0883] | −0.13 | −0.93 | 63.924 | −0.09 | −0.88 | 60.422 | – | – | – | –
22 | O=C(O)c1cc(N2CCCC2)ccc1NC(=O)C1CCCC1 [Compound F685-1588] | −0.26 | −2.44 | 57.803 | −0.23 | −3.36 | 60.73 | – | – | – | –
23 | CCCCN(CC)C(=O)C1CCCN(c2ccc(-c3ccccc3C)nn2)C1 (stereo not drawn) [Compound F305-0129] | −0.32 | −2.35 | 59.262 | −0.38 | −3.50 | 52.541 | – | – | – | –
